Results published in patent US11840521B2, “Modulators of Mas-related G-protein receptor X4 and related products and methods” (Escient Pharmaceuticals, Inc., priority 2019, dated 2023).
“Also recorded” adds a separate entry of the source. Read-outs that look alike come from different tables or passages of the source.

What was measured:
MRGPRX4 [1] = biological target: T1, MRGPRX4 (Homo sapiens, UniProt Q96LA9); test: In vitro activation (agonism) of MRGPRX4, IP-One Gq HTRF assay; assay type: cell-based
T1 sequence (Q96LA9 whole entry): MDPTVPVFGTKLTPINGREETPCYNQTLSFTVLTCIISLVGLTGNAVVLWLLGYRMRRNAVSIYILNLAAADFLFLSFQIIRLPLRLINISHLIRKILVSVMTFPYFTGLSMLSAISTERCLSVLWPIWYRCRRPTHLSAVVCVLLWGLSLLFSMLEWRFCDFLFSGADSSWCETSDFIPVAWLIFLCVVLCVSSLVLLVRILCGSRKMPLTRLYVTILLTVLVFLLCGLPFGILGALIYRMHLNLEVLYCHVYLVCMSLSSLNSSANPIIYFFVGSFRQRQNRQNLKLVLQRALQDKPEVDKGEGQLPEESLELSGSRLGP
Protocol: Metabolites of heme (bilirubin, biliverdin, urobilin, urobilinogen, and stercobilin) were analyzed for in vitro activation of MRGPRX4. Cells were plated in a 384-well assay plate at 20,000 cells per well in 12 μL of Opti-MEM and kept in an incubator overnight. On the day of the assay, different agonists solubilized at 10 mM in 0.1% NaOH were added as a 10-point curve ([…] final top concentration with 1:3 serial dilutions) using a Tecan D300E digital dispenser. Agonists were diluted in assay buffer (final concentrations of 5.7 mM Tris-HCl, 43 mM NaCl, 50 mM LiCl, pH=8) and 2 μL of the appropriate agonist are added to each well. Plates were incubated in the dark for 1 h at 37° C. and then for 30 minutes at room temperature. IP-1 standards and HTRF detection reagents were added according to the IP-One—Gq Kit purchased from Cisbio (part number 62IPAPEJ) and incubated in the dark for 1 h at room temperature. The plate was read on a Molecular Devices SpectraMax iD5 plate reader. The HTRF ratio was calculated from the raw data and graphed using GraphPad Prism to calculate an IC50 value for each compound.

wild type mice = test: Mouse itch study, scratching bouts after subcutaneous pruritogen (SCLABA); assay type: in vivo; settings: SC injection on the neck, 30 min recording, FIG. 2A-2B
Protocol: The ability of urobilin to induce itch in wild type mice was also tested. Typical mouse itch studies occurred as follows: C57B6J male mice were multiple-housed in a normal light cycle (6 am on; […]) under temperature and humidity-controlled conditions. The mice were handled and habituated to test chambers before testing, then placed in individual SCLABA test chambers. After 20 minutes, the mice were dosed PO with vehicle (saline, pH 7-8). After 30 minutes, the pruritogen of study ([…] in saline) or saline is given subcutaneously (SC) on the neck on the midline behind the ears. Video was recorded from the first pruritogen injection for 30 minutes using the SCLABA system. Scratching bouts were scored from SCLABA thumbnails using 12/45/85/100 waveform criteria. Group sizes were typically 9-10 animals per group.

MRGPRX4 [2] = biological target: T1, MRGPRX4; test: Agonism of MRGPRX4 by bilirubin and urobilin samples after 24 h storage; assay type: cell-based; settings: 24 h at room temperature under blue light; FIG. 4B
Protocol: Samples were evaluated after 24 hours and the percent remaining of urobilin and bilirubin, relative to a time zero standard, were determined by measurement of the degradation of the analyte contained in the samples as determined by tandem mass spectroscopy (LC MS/MS). The samples (at 24 h) were also evaluated for their ability to agonize MRGPRX4.

[3] = Mouse pharmacokinetics study, 50 mg/kg oral gavage, plasma LC-MS/MS; assay type: in vivo; settings: male C57BL/6 mice, non-fasted
Protocol: Compounds were formulated in 5% DMSO, 5% Solutol, and […] phosphate buffered saline at a concentration of 5 mg/mL, and typically appeared as a fine homogenous suspension. Male C57BL/6 mice (n=3/compound) were administered a 50 mg/kg dose of each compound by oral gavage under a non-fasted condition. Blood samples were collected via the saphenous vein onto K2-EDTA at 0.25, 0.5, 1, 2, 4, 8 and 24 hours after dosing, and plasma was prepared and stored at […] until analysis. Plasma sample preparation for analysis was done by protein precipitation using acetonitrile (including Celecoxib as an internal standard) followed by centrifugation. Compound concentrations were determined in extracted plasma using LC-MS/MS relative to an 8 point standard curve covering the 1 to 3000 ng/mL range. Non-compartmental analysis using Phoenix WinNonlin was used to estimate pharmacokinetic parameters including area under the curve, clearance, and half-life. The administered dose was confirmed by analysis of residual dosing material by UPLC-UV relative to a single point calibration sample.

MRGPRX4 [4] = biological target: T1, MRGPRX4; test: MRGPR X4 antagonist activity, IP-One Gq HTRF assay in stably transfected HEK cells (versus agonist bilirubin, deoxycholic acid, conjugated bilirubin, urobilin, obeticholic acid or BAR502); assay type: cell-based; design: expressed in transfected cells; host or cells: HEK cells, stably transfected
Procedure, shortened: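 Stably transfected HEK cells expressing human MRGPR X4, seeded overnight, given compounds as 10-point 1:3 curves from 10 uM final top, incubated 1 h at 37° C then 30 min at room temperature. IP-1 measured by IP-One Gq HTRF. IC50 derived from the HTRF ratio.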

[5] = versus 10 μM Bilirubin agonist, HEK cells expressing human MRGPR X4, read-out: MRGPR4 Antagonist Activity
[6] = versus 10 μM Bilirubin agonist, read-out: IC50 (Bilirubin agonist)
[7] = versus 20 μM deoxycholic acid, read-out: IC50 (Deoxycholic Acid agonist)
[8] = versus 20 μM obeticholic acid, read-out: IC50 (Obeticholic Acid Agonist)
[9] = versus 50 μM urobilin, read-out: IC50 (Urobilin Agonist)
[10] = versus 100 μM conjugated bilirubin, read-out: IC50 (Conjugated Bilirubin Agonist)
[11] = read-out: IC50 (10 μM BAR502) nM, MRGPRX4 antagonists versus 10 μM BAR502 agonist

| SMILES | AUC [3] | Cmax [3] | T-1/2 [3] | IC50 (MRGPRX4 [4]; [5]) | IC50 (MRGPRX4 [4]; [6]) | IC50 (MRGPRX4 [4]; [7]) | IC50 (MRGPRX4 [4]; [8]) | IC50 (MRGPRX4 [4]; [9]) | IC50 (MRGPRX4 [4]; [10]) | further results |
| --- | --- | --- | --- | --- | --- | --- | --- | --- | --- | --- |
| CCC1=C(C)C(CC2=N/C(=C\c3[nH]c(CC4NC(=O)C(C)=C4CC)c(C)c3CCC(=O)O)C(CCC(=O)O)=C2C)NC1=O (stereo not shown) [Urobilin, urobilin] | – | – | – | – | – | – | – | – | – | efficacy at activating MRGPRX4 relative to bilirubin (MRGPRX4 [1]; FIG. 1, compared with bilirubin): at least 10 fold; induction of scratch response in mice (wild type mice): induced scratch response in mice in a dose dependent manner; also recorded: potent inducer of scratch response in mice; agonist activity on MRGPRX4 after storage, relative to the other three groups (MRGPRX4 [2]): very little agonist activity |
| O=C(O)c1cccc(COc2ccc(Cl)c(Cl)c2Cl)c1 [Compound 1-78] | 219 μMxhr | 57 µM | 4.0 h | < 100 nM | 7 nM | 24 nM | 21 nM | 13 nM | 24 nM | IC50 (MRGPRX4 [4]; [11]): 20 nM |
| O=C(O)c1cccc(COc2ccc(Cl)cc2Cl)n1 [Compound 1-115] | 1206 μMxhr | 306 µM | 3.0 h | < 100 nM | 81 nM | 230 nM | 47 nM | – | 180 nM | – |
| O=C(O)c1cccc(COc2ccc(C(F)(F)F)cc2Cl)c1F [Compound 1-55, 3-((2-chloro-4-(trifluoromethyl)phenoxy)methyl)-2-fluorobenzoic acid] | 2150 μMxhr | 230 µM | 11.2 h | < 100 nM | 6 nM | 22 nM | 11 nM | 23 nM | 14 nM | IC50 (MRGPRX4 [4]; [11]): 16 nM |
| CC[C@H]1[C@@H](O)[C@@H]2[C@H](CC[C@]3(C)[C@@H]([C@H](C)CCO)CC[C@@H]23)[C@@]2(C)CC[C@@H](O)C[C@@H]12 [BAR502] | – | – | – | – | – | – | – | – | – | EC50 (MRGPRX4 [1]; read-out: agonist activity against MRGPRX4): 5700 nM |
| O=C(O)c1cc(COc2ccc(C(F)(F)F)cc2Cl)ccc1F [Compound 1-85, 5-((2-chloro-4-(trifluoromethyl)phenoxy)methyl)-2-fluorobenzoic acid] | 1069 μMxhr | 239 µM | 4.7 h | < 100 nM | 20 nM | 30 nM | 15 nM | 41 nM | 29 nM | – |
| O=C(O)c1cc(F)cc(COc2ccc(C(F)(F)F)cc2Cl)c1 [Compound 1-65, 3-((2-chloro-4-(trifluoromethyl)phenoxy)methyl)-5-fluorobenzoic acid] | 1037 μMxhr | 220 µM | 4.8 h | < 100 nM | 9 nM | 28 nM | 23 nM | 21 nM | 17 nM | IC50 (MRGPRX4 [4]; [11]): 13 nM |
| O=C(O)c1cccc(COc2ccc(Cl)cc2Cl)c1 [Compound 1-18] | 376 μMxhr | 113 µM | 4.2 h | < 100 nM | 57 nM | 130 nM | 40 nM | 230 nM | 130 nM | IC50 (MRGPRX4 [4]; [11]): 48 nM |
| O=C(O)c1cccc(COc2ccc(C(F)(F)F)cc2Cl)n1 [Compound 1-56, 6-((2-chloro-4-(trifluoromethyl)phenoxy)methyl)picolinic acid] | 880 μMxhr | 162 µM | 3.2 h | < 100 nM | 28 nM | 30 nM | 24 nM | 21 nM | 32 nM | IC50 (MRGPRX4 [4]; [11]): 16 nM |
| O=C(O)c1cccc(COc2ccc(C(F)(F)F)cc2Cl)c1 [Compound 1-29] | 615 μMxhr | 196 µM | 4.6 h | < 100 nM | 20 nM | 46 nM | 25 nM | 16 nM | 46 nM | – |
| O=C(O)c1cccc(COc2cccc(C(F)F)c2)c1 [Compound 1-100] | – | – | – | > 2500 nM | – | – | – | – | – | – |
| O=C(O)c1cccc(COc2ccc(F)cc2Cl)c1 [Compound 1-24] | – | – | – | > 2500 nM | – | – | – | – | – | – |
| O=C(O)c1cc(Br)cc(COc2ccc(C(F)(F)F)cc2Cl)c1 [Compound 2-3] | – | – | – | < 100 nM | – | – | – | – | – | – |
| O=C(O)c1cccc(COc2ccc(C(F)(F)F)nc2)c1 [Compound 1-102] | – | – | – | 1000 to 2500 nM | – | – | – | – | – | – |
| O=C(O)c1cncc(COc2ccc(Cl)cc2Cl)n1 [Compound 1-116] | – | – | – | 500 to 1000 nM | – | – | – | – | – | – |
| CC(C)c1ccccc1OCc1cccc(C(=O)O)c1 [Compound 1-146] | – | – | – | > 2500 nM | – | – | – | – | – | – |
| COc1ccc(OCc2cccc(C(=O)O)c2)c(Cl)c1 [Compound 1-92] | – | – | – | 1000 to 2500 nM | – | – | – | – | – | – |
| COc1ccccc1OCc1cccc(C(=O)O)c1 [Compound 1-37] | – | – | – | 100 to 500 nM | – | – | – | – | – | – |
| N#Cc1cc(Cl)c(F)cc1OCc1cccc(C(=O)O)c1 [Compound 1-153] | – | – | – | 100 to 500 nM | – | – | – | – | – | – |
| O=C(O)c1cccc(COc2cccc3c2CCC3)c1 [Compound 1-33] | – | – | – | 1000 to 2500 nM | – | – | – | – | – | – |
| Cc1cc(F)c(F)cc1OCc1cccc(C(=O)O)c1 [Compound 1-71] | – | – | – | 500 to 1000 nM | – | – | – | – | – | – |

More lines, main results first:

| AUC [3] | Cmax [3] | T-1/2 [3] | IC50 (MRGPRX4 [4]; [5]) | IC50 (MRGPRX4 [4]; [6]) | IC50 (MRGPRX4 [4]; [7]) | IC50 (MRGPRX4 [4]; [8]) | IC50 (MRGPRX4 [4]; [9]) | IC50 (MRGPRX4 [4]; [10]) | SMILES | further results |
| --- | --- | --- | --- | --- | --- | --- | --- | --- | --- | --- |
| 974 μMxhr | 260 µM | 4.6 h | < 100 nM | 16 nM | 22 nM | 15 nM | 35 nM | 21 nM | Cc1cc(COc2ccc(C(F)(F)F)cc2Cl)cc(C(=O)O)c1 [Compound 4-10, 3-((2-chloro-4-(trifluoromethyl)phenoxy)methyl)-5-methylbenzoic acid] | – |
| 1503 μMxhr | 231 µM | 5.9 h | < 100 nM | 27 nM | 55 nM | – | – | 81 nM | O=C(O)c1cccc(COc2ccc(Cl)cc2Cl)c1F [Compound 4-1, 3-((2,4-dichlorophenoxy)methyl)-2-fluorobenzoic acid] | – |
| 4700 μMxhr | 460 µM | 5.4 h | < 100 nM | 16 nM | 16 nM | 7 nM | 21 nM | 28 nM | CCc1cc(COc2ccc(C(F)(F)F)cc2Cl)nc(C(=O)O)c1 [Compound 42-3] | IC50 (MRGPRX4 [4]; [11]): 17 nM |
| 572 μMxhr | 257 µM | 3.6 h | < 100 nM | 24 nM | 63 nM | 25 nM | 35 nM | 41 nM | Cc1cc(COc2ccc(C(F)(F)F)cc2C)cc(C(=O)O)c1 [Compound 4-11] | – |
| – | – | – | 100 to 500 nM | – | – | – | – | – | N#Cc1cc(CCc2ccc(C(F)(F)F)cc2Cl)cc(C(=O)O)c1 [Compound 61-1, 3-(2-chloro-4-(trifluoromethyl)phenethyl)-5-cyanobenzoic acid] | – |
| – | – | – | < 100 nM | – | – | – | – | – | Fc1cc(COc2ccc(C(F)(F)F)cc2Cl)cc(-c2nnn[nH]2)c1 [Compound 17-14] | – |
| – | – | – | 100 to 500 nM | – | – | – | – | – | O=C(N[C@@H](Cc1ccc(O)cc1)C(=O)O)c1cccc(COc2ccc(C(F)(F)F)cc2Cl)c1 [Compound 54-7] | – |
| – | – | – | < 100 nM | – | – | – | – | – | O=C(O)c1nc(COc2ccc(C(F)(F)F)cc2Cl)ccc1F [Compound 4-18] | – |
| – | – | – | 100 to 500 nM | – | – | – | – | – | O=C(NCCS(=O)(=O)O)c1ccc(COc2ccc(C(F)(F)F)cc2Cl)cc1 [Compound 52-5] | – |
| – | – | – | < 100 nM | – | – | – | – | – | CCCc1cc(COc2ccc(C(F)(F)F)cc2Cl)nc(C(=O)O)c1 [Compound 39-1, 6-((2-chloro-4-(trifluoromethyl)phenoxy)methyl)-4-propylpicolinic acid] | – |
| – | – | – | > 2500 nM | – | – | – | – | – | O=C(O)c1cccc(Oc2ccc([N+](=O)[O-])cc2Cl)c1 [Compound 16-2] | – |
